Patent US9580398B2, “Compounds, compositions, and methods for modulating ferroptosis and treating excitotoxic disorders” (The Trustees of Columbia University in the City of New York, priority 2012, dated 2017)

How the values were obtained:
[1] = tested on: HT-1080 cells; assay: LOC library screening and confirmation: inhibition of erastin-induced ferroptosis; assay type: cell-based, human; settings: LOC library screening and confirmation studies, read-out: EC50, inhibitor of erastin-induced ferroptosis
Method: The LOC library was screened over the course of several days. 384-well glass bottom assay plates (Corning) were seeded with 1,000 HT-1080 cells/well the day before the experiment. The day of the experiment, LOC mother plates were thawed at room temperature for 1 hour and spun at 1000 rpm for 1 minute prior to use. Using a BioMek liquid handing robot, 2 μL of compound solution from each LOC library mother plate was transferred to a 384 deep well “daughter” plate (Grenier) containing 148 μL of cell culture media. The cell culture media in each assay plate was then removed by flicking and, using a BioMek FX, replaced with 36 μL of growth media containing erastin (5 μM final). To this was added 4 μL of the drug solution from the daughter plate, for a final screening concentration of 5.3 μg/mL for each LOC library compound. 4 wells containing DMSO alone (no erastin), 4 wells containing 100 μM DFO alone (no erastin), 4 wells containing erastin plus DMSO, and 4 wells containing erastin plus 100 μM DFO (positive control) were included as controls on each plate. Each drug daughter plate was aliquoted separately to duplicate assay plates. Plates were then spun briefly (1000 rpm, 5 seconds) and returned to the 37° C. tissue culture incubator. 24 hours later, cell viability was assessed by Alamar Blue as described above.
Candidate hits from the LOC library screen were identified. […]

[2] = tested on: HT-1080 cells; assay: Modulatory profile of lethal small molecules (effect of Fer-1 on lethality of various compounds); assay type: cell-based, human; settings: resynthesized Fer-1 0.5 μM
Method: The modulatory effect (Me) for drug-drug interactions was computed as follows. First, plate-based background correction was performed using Alamar Blue values from empty (cell-free) wells included on each plate. Next, within each experiment, 100% viability is determined as the average Alamar Blue score for cells treated with modulator=DMSO and lethal=DMSO, and all Alamar Blue values were scaled from 0 to 1 with the DMSO×DMSO condition=1. The individual effects of each modulator and lethal (e.g. in the presence of DMSO) at all tested doses were then ascertained. […] Next, BExp was compared to the actual observed viability. For each informative drug-drug interaction (i.e. modulator=“DFO”, modulator concentration=100 μM, lethal=Erastin) the modulatory effect (Me) was equivalent to the maximum observed deviation, positive or negative, from BExp. By default, Me in DMSO-treated cells is equal to 0. This formula was empirically determined to provide a useful measure of modulation that is robust to differences in the shapes of individual dose-response curves for different inhibitors and lethal molecules. Me values for each inhibitor-lethal drug combination were hierarchically clustered and plotted as a heatmap using the heatmaps.2 function of the gplots library in R. […]

[3] = 2,2-diphenyl-1-picrylhydrazyl (DPPH) assay, cell-free antioxidant potential; settings: test compound 0.05 mM, absorbance at 517 nm
Method: The stable radical DPPH (Blois, 1958) was dissolved in methanol to a final concentration of 0.05 mM. 1 mL of DPPH solution was added to 2 μL of each test compound dissolved in DMSO. The final concentration of each test compound was 0.05 mM. Samples were inverted several times and allowed to incubate at room temperature for 10 minutes. Samples were then aliquoted to white 96-well solid-bottom dishes (Corning) and absorbance at 517 nm was recorded using a TECAN M200 plate reader. All values were normalized to background (methanol only). The experiment was repeated twice. Results within each trial normalized to DMSO (=1.0), then averaged across trials.

SMILES: CCOC(=O)c1ccc(NC2CCCCC2)c(N)c1 [Fer-1, ferrostatin-1]
- EC50 [1]: 0.06 µM
- specificity of death inhibition against various lethal compounds [2]: specifically inhibited RSL-induced death, but not cell death induced by other oxidative lethal compounds and apoptosis-inducing agents
- intrinsic antioxidant capability (DPPH) [3]: readily oxidized the stable radical 2,2-diphenyl-1-picrylhydrazyl (DPPH)
